Where a name gives a salt, the structure may show the parent alone. Read-outs that look alike come from different tables or passages of the source.
Assays:
[1] = test system: S. aureus Smith (Sensitive); assay: MIC, agar dilution; assay type: cell-based
[2] = test system: Enterobacter aerogenes; assay: MIC vs recent clinical and agricultural isolates (Table V, KK); assay type: cell-based; details: [10] tested
[3] = test system: Clostridium difficile; assay: as above; assay type: cell-based; details: [12] tested
[4] = test system: S. aureus UBMS 88-7 (tetK); assay: MIC, agar dilution; assay type: cell-based
[5] = test system: Clostridium perfringens; assay type: cell-based; details: [16] tested
[6] = test system: Anaerobic Gram (+) Cocci; assay: MIC vs recent clinical and agricultural isolates (Table V, KK); assay type: cell-based; details: [15] tested
[7] = test system: Bacteroides spp.; assay: as above; assay type: cell-based; details: [9] tested
[8] = test system: Staphylococcus aureus, methicillin-susceptible; assay: as above; assay type: cell-based; details: [15] tested
[9] = test system: Kiebsiella pneumoniae; assay: as above; assay type: cell-based; details: [10] tested
[10] = test system: Proteus vulgaris; assay: as above; assay type: cell-based; details: [18] tested
[11] = test system: E. coli UBMS 89-2 (Sensitive); assay: MIC, agar dilution; assay type: cell-based
[12] = test system: Haemophilus influenzae; assay: MIC vs recent clinical and agricultural isolates (Table V, KK); assay type: cell-based; details: [15] tested
[13] = test system: E. coli ATCC 25922; assay: MIC, agar dilution; assay type: cell-based
[14] = test system: S. aureus UBMS 90-1 (tetM); assay: MIC, agar dilution; assay type: cell-based; details: for MIC: S. aureus UBMS 90-1 (tetM)
[15] = test system: Bacertoides fragilis group; assay: MIC vs recent clinical and agricultural isolates (Table V, KK); assay type: cell-based; details: [10] tested
[16] = test system: Bacteroides fragilis; assay: as above; assay type: cell-based; details: [11] tested
[17] = test system: Enterobacter cloacae; assay: as above; assay type: cell-based; details: [10] tested
[18] = test system: Klebsiella oxytoca; assay: as above; assay type: cell-based; details: [10] tested
[19] = test system: S. aureus SMITH (sens); assay: In vivo antibacterial evaluation, acute lethal infection in mice
Text: In Vivo Antibacterial Evaluation (Table VII)

[20] = test system: Listeria monocytogenes; assay: MIC vs recent clinical and agricultural isolates (Table V, KK); assay type: cell-based; details: [8] tested
[21] = test system: Escherichia coli (Agricultural); assay: as above; assay type: cell-based; details: [15] tested
[22] = test system: S. aureus UBMS 90-3 (Sensitive); assay: MIC, agar dilution; assay type: cell-based
[23] = test system: Escherichia coli UBMS 90-4 (Tet-M); assay: In vivo antibacterial evaluation, acute lethal infection in mice
[24] = test system: Enterococcus spp. Vancomycin-resistant; assay: MIC vs recent clinical and agricultural isolates (Table V, KK); assay type: cell-based; details: [8] tested
[25] = test system: Streptococcus pneumoniae; assay: as above; assay type: cell-based; details: [10] tested
[26] = test system: Staphylococcus Coagulase-negative, methicillin-susceptible; assay: as above; assay type: cell-based; details: [16] tested
[27] = test system: E. faecalis ATCC 29212; assay: MIC, agar dilution; assay type: cell-based; details: E. faecalis ATCC 29212
[28] = test system: E. coli UBMS 90-4 (tetM); assay: MIC, agar dilution; assay type: cell-based
[29] = test system: Enterococcus faecalis; assay: MIC vs recent clinical and agricultural isolates (Table V, KK); assay type: cell-based; details: [10] tested
[30] = test system: Bordetella bronchiseptica (Agricultural); assay: as above; assay type: cell-based; details: [10] tested
[31] = test system: Morganella morganii; assay: as above; assay type: cell-based; details: [16] tested
[32] = test system: S. aureus UBMS 90-2 (tetM); assay: MIC, agar dilution; assay type: cell-based; details: for MIC: S. aureus UBMS 90-2 (tetM)
[33] = test system: Neisseria gonorrhoeae; assay: MIC vs recent clinical and agricultural isolates (Table V, KK); assay type: cell-based; details: [14] tested
[34] = test system: Staphylococcus aureus, methicillin-resistant; assay: as above; assay type: cell-based; details: [15] tested
[35] = test system: Streptococcus agalactiae; assay: as above; assay type: cell-based; details: [10] tested
[36] = test system: E. faecalis 12201; assay: MIC, agar dilution; assay type: cell-based
[37] = test system: Proteus mirabilis; assay: MIC vs recent clinical and agricultural isolates (Table V, KK); assay type: cell-based; details: [26] tested
[38] = test system: S. aureus UBMS 88-5 (tetM); assay: MIC, agar dilution; assay type: cell-based; details: for MIC: S. aureus UBMS 88-5 (tetM)
[39] = test system: E. coli UBMS 88-1 (tetB); assay: MIC, agar dilution; assay type: cell-based; details: for MIC: E. coli UBMS 88-1 (tetB)
[40] = test system: Xanthomonas maltophilia; assay: MIC vs recent clinical and agricultural isolates (Table V, KK); assay type: cell-based; details: [10] tested
[41] = test system: Pasturella multocida (Agricultural & Clinical); assay: as above; assay type: cell-based; details: [17] tested
[42] = test system: Serratia mercescens; assay: as above; assay type: cell-based; details: [10] tested
[43] = test system: E. coli UBMS 89-1 (tetM); assay: MIC, agar dilution; assay type: cell-based
[44] = test system: Escherichia coli (Clinical); assay: MIC vs recent clinical and agricultural isolates (Table V, KK); assay type: cell-based; details: [30] tested

SMILES: CN(C)c1ccc(O)c2c1C[C@H]1C[C@H]3[C@H](N(C)C)C(O)=C(C(N)=O)C(=O)[C@@]3(O)C(O)=C1C2=O [Compound O, 7-(Dimethylamino)-6-demethyl-6-deoxytetracycline hydrochloride (minocycline hydrochloride), reference compound]
- MIC ([1]; Staphylococcus aureus, S. aureus Smith (Sensitive), read-out: MIC): ≤ 0.015 µg/mL
- MIC (range over isolates) [2]: 0.5 to 1 µg/mL
- MIC (range over isolates) [3]: 0.015 to 16 µg/mL
- MIC ([4]; Staphylococcus aureus): 0.06 µg/mL
- MIC (range over isolates) [5]: >0.008 to 16 µg/mL
- MIC (range over isolates) [6]: 0.05 to 8 µg/mL
- MIC (range over isolates) [7]: 0.03 to 16 µg/mL
- MIC (range over isolates) [8]: 0.03 to 0.12 µg/mL
- MIC (range over isolates) [9]: 0.5 to 8 µg/mL
- MIC (range over isolates) [10]: 0.5 to 16 µg/mL
- MIC ([11]; Escherichia coli, E. coli UBMS 89-2 (Sensitive), read-out: MIC): 0.5 µg/mL
- MIC (range over isolates) [12]: 0.5 to 2 µg/mL
- MIC ([13]; E. coli ATCC 25922, hydrochloride): 0.5 µg/mL
- MIC ([13]; Escherichia coli, ATCC25922, E. coli ATCC 25922, read-out: MIC): 0.25 µg/mL
- MIC ([14]; hydrochloride): 2 µg/mL
- MIC ([14]; Staphylococcus aureus): 4 µg/mL
- MIC (range over isolates) [15]: <0.008 to 4 µg/mL
- MIC (range over isolates) [16]: <0.008 to 16 µg/mL
- MIC (range over isolates) [17]: 0.25 to 4 µg/mL
- MIC (range over isolates) [18]: 0.5 to 4 µg/mL
- ED50 ([19]; Staphylococcus aureus, Oral, read-out: ED50): 0.74 mg/kg
- ED50 ([19]; Staphylococcus aureus, iv, Intraveneous, read-out: ED50): 0.37 mg/kg
- MIC (range over isolates) [20]: 0.015 to 0.03 µg/mL
- MIC (range over isolates) [21]: 1 to 16 µg/mL
- MIC ([22]; Staphylococcus aureus, S. aureus UBMS 90-3 (Sensitive), read-out: MIC): ≤ 0.015 µg/mL
- ED50 ([23]; Escherichia coli, in Mus musculus, iv): > 32 mg/kg
- MIC (range over isolates) [24]: 0.03 to 16 µg/mL
- MIC (range over isolates) [25]: 0.06 to 0.5 µg/mL
- MIC (range over isolates) [26]: 0.03 to 1 µg/mL
- MIC ([27]; Enterococcus faecalis, ATCC29212, read-out: MIC): 0.5 µg/mL
- MIC ([28]; Escherichia coli): 64 µg/mL
- MIC (range over isolates) [29]: 0.03 to 16 µg/mL
- MIC (range over isolates) [30]: 0.06 to 0.12 µg/mL
- MIC (range over isolates) [31]: 0.25 to 32 µg/mL
- MIC ([32]; hydrochloride): 1 µg/mL
- MIC ([32]; Staphylococcus aureus): 2 µg/mL
- MIC (range over isolates) [33]: 0.5 to 64 µg/mL
- MIC (range over isolates) [34]: 0.06 to 4 µg/mL
- MIC (range over isolates) [35]: 0.12 to 16 µg/mL
- MIC ([36]; E. faecalis 12201, hydrochloride): 8 µg/mL
- MIC ([36]; Enterococcus faecalis, 12201, E. faecalis 12201, read-out: MIC): 4 µg/mL
- MIC (range over isolates) [37]: 1 to 32 µg/mL
- MIC ([38]; hydrochloride): 4 µg/mL
- MIC ([38]; Staphylococcus aureus): 2 µg/mL
- MIC ([39]; hydrochloride): 16 µg/mL
- MIC ([39]; Escherichia coli): 8 µg/mL
- MIC (range over isolates) [40]: 0.12 to 1 µg/mL
- MIC (range over isolates) [41]: 0.015 to 4 µg/mL
- MIC (range over isolates) [42]: 1 to 8 µg/mL
- MIC ([43]; Escherichia coli): 16 µg/mL
- MIC (range over isolates) [44]: 0.25 to 32 µg/mL

SMILES: CN(C)CC(=O)Nc1cc(N(C)C)c2c(c1O)C(=O)C1=C(O)[C@]3(O)C(=O)C(C(N)=O)=C(O)[C@@H](N(C)C)C3CC1C2.Cl.Cl (stereo partly drawn) [KK, [4S-(4alpha,12aalpha)]-4,7-Bis(dimethylamino)-9-[[(dimethylamino)acetyl]amino]-1,4,4a,5,5a,6,11,12a-octahydro-3,10,12,12a-tetrahydroxy-1,11-dioxo-2-naphthacenecarboxamide dihydrochloride]
- Antibacterial activity (MIC) ([1]; S. aureus SMITH (MP), Table IA, unit assumed): 0.06 µg/mL
- MIC (range over isolates) [2]: 0.5 to 1 µg/mL
- MIC (range over isolates) [3]: 0.03 µg/mL
- Antibacterial activity (MIC) ([4]; S. aureus UBMS 88-7 TetK, Table IA, unit assumed): 0.25 µg/mL
- MIC (range over isolates) [5]: 0.03 to 1 µg/mL
- MIC (range over isolates) [6]: 0.015 to 0.06 µg/mL
- MIC (range over isolates) [7]: 0.03 to 1 µg/mL
- MIC (range over isolates) [8]: 0.12 to 0.25 µg/mL
- MIC (range over isolates) [9]: 0.25 to 8 µg/mL
- MIC (range over isolates) [10]: 0.5 to 4 µg/mL
- Antibacterial activity (MIC) ([11]; E. coli UBMS 89-2 Tet Sens., Table IA, unit assumed): 0.25 µg/mL
- MIC (range over isolates) [12]: 0.5 to 2 µg/mL
- Antibacterial activity (MIC) ([13]; E. coli ATCC 25922, Table IA, unit assumed): 0.25 µg/mL
- Antibacterial activity (MIC) ([14]; S. aureus UBMS 90-1 TetM, Table IA, unit assumed): 0.25 µg/mL
- MIC (range over isolates) [15]: 0.06 to 2 µg/mL
- MIC (range over isolates) [16]: 0.06 to 0.2 µg/mL
- MIC (range over isolates) [17]: 0.5 to 1 µg/mL
- MIC (range over isolates) [18]: 0.5 to 1 µg/mL
- ED50 ([19]; Oral): 8 to 16 mg/kg
- MIC (range over isolates) [20]: 0.06 to 0.12 µg/mL
- MIC (range over isolates) [21]: 0.12 to 4 µg/mL
- Antibacterial activity (MIC) ([22]; S. aureus UBMS 90-3, Table IA, unit assumed): 0.03 µg/mL
- ED50 ([23]; mice, Escherichia coli UBMS 90-4 (Tet-M), Intraveneous): 2.49 mg/kg
- MIC (range over isolates) [24]: 0.015 to 0.06 µg/mL
- MIC (range over isolates) [25]: 0.03 to 0.25 µg/mL
- MIC (range over isolates) [26]: 0.12 to 8 µg/mL
- Antibacterial activity (MIC) ([27]; Table IA, unit assumed): 0.06 µg/mL
- Antibacterial activity (MIC) ([28]; E. coli UBMS 90-4 TetM, Table IA, unit assumed): 0.25 µg/mL
- MIC (range over isolates) [29]: 0.015 to 0.12 µg/mL
- MIC (range over isolates) [30]: 0.12 µg/mL
- MIC (range over isolates) [31]: 0.5 to 4 µg/mL
- Antibacterial activity (MIC) ([32]; S. aureus UBMS 90-2 TetM, Table IA, unit assumed): 0.12 µg/mL
- MIC (range over isolates) [33]: 0.25 to 1 µg/mL
- MIC (range over isolates) [34]: 0.12 to 2 µg/mL
- MIC (range over isolates) [35]: 0.06 to 0.25 µg/mL
- Antibacterial activity (MIC) ([36]; Enterococcus 12201, Table IA, unit assumed): 0.12 µg/mL
- MIC (range over isolates) [37]: 1 to 32 µg/mL
- Antibacterial activity (MIC) ([38]; S. aureus UBMS 88-5 TetM, Table IA, unit assumed): 0.25 µg/mL
- Antibacterial activity (MIC) ([39]; E. coli UBMS 88-1 TetB, Table IA, unit assumed): 0.25 µg/mL
- MIC (range over isolates) [40]: 0.5 to 2 µg/mL
- MIC (range over isolates) [41]: 0.03 to 0.25 µg/mL
- MIC (range over isolates) [42]: 2 to 8 µg/mL
- Antibacterial activity (MIC) ([43]; E. coli UBMS 89-1 TetM, Table IA, unit assumed): 0.12 µg/mL
- MIC (range over isolates) [44]: 0.12 to 4 µg/mL

— patent USRE40086E1, “Method for treating bacterial infection with novel 7-substituted-9-substituted amino 6-demethyl-6-deoxytetracyclines” (Wyeth Holdings Corporation, priority 1991, dated 2008)
